Measurements reported in US6469040B2, “Method of using cyclooxygenase-2 inhibitors in the treatment and prevention of neoplasia” (G.D. Searle & Co., priority 1997, dated 2002).

What was measured:
[1] = test system: LNCaP; test: LNCaP human prostate cancer cell tumors in nude mice; assay type: in vivo; conditions: 6 mg/kg/day in drinking water
Text: (§1) Two human prostate cancer cell lines (PC-3 and LNCaP) were obtained (ATCC) to determine the efficacy of cyclooxygenase-2 inhibitors to inhibit tumor growth in a therapeutic model. In addition, the LNCaP cell line secretes prostate serum antigen (PSA) when grown in nude mice.
PSA level was reduced to approximately 50% as judged by western blotting.

[2] = test system: PC-3 cells; test: PC-3 human prostate cancer cell tumors in nude mice; assay type: in vivo; conditions: 20 mg/kg/day in water from day 28, after 45 days
Experimental: as §1
PC-3 cells (10^6 cells/0.2 ml of 30% matrigel) in RPMI 1640 medium was injected on the back of nude mice. […] After 45 days, PGE2 and TXB2 were measured.

[3] = test system: Lewis Lung carcinoma cells; conditions: CTX 50 mg/kg injected on days 5, 7 and 9
Experimental: Lewis Lung carcinoma cells (2.5×10^6 cells) prepared from a brei carried in C57BL/6 mice were injected subcutaneously into the hind legs of mice. […] Cyclophosphamide (CTX) was injected to mice on days 5,7 and 9 after the implantation of the tumor at a dose of 50 mg/kg. Tumor volume was determined during the study. The % inhibition was calculated as above.

Structure (SMILES)	inhibition of growth of the tumor ([1]; day 58)	PSA level reduced to ([1]; judged by western blotting)	PGE2 level reduction [2]	TXB2 level reduction [2]	Tumor Volume (Day 22) % Inhibition [3]
NS(=O)(=O)c1ccc(-n2nc(C(F)F)cc2-c2ccc(Cl)cc2)cc1 [COX-2 inhibitor, 4-[5-(4-chlorophenyl)-3-(difluoromethyl)-1H-pyrazol-1-yl]benzenesulfonamide]	55%	approximately 50%	80-90%	80-90%	
O=P1(N(CCCl)CCCl)NCCCO1 (centres unmarked) [CTX, Cyclophosphamide]					57%
